US6403575B1, “3-Pyridyl enantiomers and their use as analgesics” (Abbott Laboratories, priority 1996, dated 2002)
Structures can show the parent of a compound that is named as a salt. Where two headings read alike, the source gives them in different places.

Assays:
[1] = tested on: rat spinal cord cultures; assay: Neuroprotection against substance P or glutamate toxicity in primary spinal cord cultures (LDH release); format: cell-based; conditions: for block of SP-induced toxicity: SP 30 μM, spantide II 100 μM, MK-801
[2] = tested on: rats; assay: Paw Thermal Stimulator (Hotbox) Model; format: in vivo; conditions: rat, i.p., tested 0.62 to 6.2 μmol/kg
Description: For assessing nociceptive responses to an acute thermal stimulus, a commercially available paw thermal stimulator was utilized (Anesthesiology Research Laboratory, Department of Anesthesiology, University of California at San Diego, La Jolla, Calif.). This device has been previously described (Dirig, D. M. and Yaksh, T. L., Pain, 62: 321-328, 1995) and is based on the initial work of Hargreaves et al. (Pain, 32: 77-88, 1988). Rats were placed in Plexiglas cubicles that were located on a glass surface of the apparatus. The surface of the glass was maintained at 30° C. A thermal stimulus was applied to the bottom of the rear foot of the rat via a movable focused projection bulb. The stimulus current was maintained at 4.8 Amps. The latency until the animal moved its foot from the stimulus was recorded automatically by use of photodiode motion sensors. In the current studies, a 20 second cut-off was employed to limit possible tissue damage following exposure to the stimulus.
All studies began with a 20 min acclimation period. Following the acclimation period, a baseline measure was determined for each animal. Following determination of baseline, treatments were administered and measures were taken at various time points following treatment (e.g., 15, 30, and 45 min). For clarity, data were collapsed over time for statistical analysis (unless otherwise noted).
Stock solutions of compounds were prepared in absolute ethanol at a concentration of 62 μmol/ml. From this, solutions were made with 10% ethanol, and dosed by injection i.p. Compounds were tested in the dose range of from 0.62 to 6.2 μmol/kg.
For measurements, the following protocol was utilized. Six animals were used in each run. For any given measure (e.g., time point), one foot of each of the 6 animals was tested and then the process was repeated for the opposite foot. Mean values for the response were then computed based on the two scores.

[3] = molecular target: T1, peripheral ganglionic receptors (Homo sapiens, UniProt P30926+P32297); assay: 86Rb+ flux activation in IMR-32 human neuroblastoma cells; format: cell-based; conditions: 1 μM compound, % of maximum response to (S)-nicotine
T1 construct: Cells of the IMR-32 human neuroblastoma clonal cell line (ATCC, Rockville, Md.); host or cells: IMR-32 human neuroblastoma cells
Protocol: Protocol for the Determination of Ability of Nicotinic Acetylcholine Receptor Ligands to Activate Peripheral Ganglionic Receptors
Cells of the IMR-32 human neuroblastoma clonal cell line (ATCC, Rockville, Md.) were maintained in a log phase of growth according to established procedures. Experimental cells were seeded at a density of 500,000 cells/mL into a 24-well tissue culture dish. Plated cells were allowed to proliferate for at least 48 hours before loading with 2 μCi/mL of ^86Rb^+ (35 Ci/mmol) overnight at 37° C. The ^86Rb^+ efflux assays were performed according to previously published protocols (Lukas, R. J., J. Pharmacol. Exp. Ther., 265: 294-302, 1993) except serum-free Dulbecco's Modified Eagle's Medium was used during the ^86Rb^+ loading, rinsing, and agonist-induced efflux steps. Data reflect the activation of ^86Rb^+ flux at a concentration of 1 μM, and reflect the response as a percentage of the maximum response elicited by (S)-nicotine.

[4] = molecular target: T2, neuronal nicotinic acetylcholine receptors (Rattus norvegicus, UniProt P09483+P12390); assay: [3H]-cytisine binding to neuronal nicotinic acetylcholine receptors, whole rat brain membranes; conditions: [3H]-cytisine 1.25 nM, whole rat brain membranes; read-out: [3H] CYT Ki
T2 construct: crude synaptic membrane preparations from whole rat brain; from tissue; host or cells: whole rat brain, crude synaptic membranes
Protocol: Protocol for Determination of Nicotinic Acetylcholine Channel Receptor Binding Potencies of Ligands
Binding of [^3H]-cytisine ([^3H]-CYT) to neuronal nicotinic acetylcholine receptors was accomplished using crude synaptic membrane preparations from whole rat brain (Pabreza et al., Molecular Pharmacol., 1990, 39:9). Washed membranes were stored at −80° C. prior to use. Frozen aliquots were slowly thawed and resuspended in 20 volumes of buffer (containing: 120 mM NaCl, 5 mM KCl, 2 mM MgCl2, 2 mM CaCl2 and 50 mM Tris-Cl, pH 7.4 @4° C.). After centrifuging at 20,000×g for 15 minutes, the pellets were resuspended in 30 volumes of buffer. Homogenate (containing 125-150 μg protein) was added to triplicate tubes containing concentrations of test compound and [^3H]-CYT (1.25 nM) in a final volume of 500 μL. Samples were incubated for 60 minutes at 4° C., then rapidly filtered through Whatman GF/B filters presoaked in 0.5% polyethyleneimine using 3×4 mL of ice-cold buffer. The filters are counted in 4 mL of Ecolume® (ICN). Nonspecific binding was determined in the presence of 10 μM (−)-nicotine and values were expressed as a percentage of total binding.

[5] = tested on: rats; assay: Chung Model of Neuropathic Pain; format: in vivo; design: key: NS = no significant effect observed relative to saline controls at the doses tested; conditions: rat, 50% threshold to VonFrey hairs
[6] = tested on: mice; assay: Mouse Hot Plate Paradigm; format: in vivo; conditions: 30 minutes prior to testing, 55° C.; for minimal effective dose: ip, 0.5 h, i.p., read-out: MED Hot plate model (μmol/kg, i.p.)
[7] = tested on: rats; assay: Carrageenan paw edema model; format: in vivo; conditions: rat
[8] = tested on: rats; assay: Chung Model of Neuropathic Pain following repeated dosing; format: in vivo; conditions: rat, in vivo, ip
Protocol: Animals were surgically prepared as described above for the Chung model. For assessment of each test compound, two treatment groups (6 animals each) were established. One group was injected (i.p.) with test compound twice daily for 5 days, and the other group was injected on the same schedule with saline. Responses to von Frey hairs were assessed as described above both before, and 15 minutes after, injection on the first 2 days and also on the 5th day. The saline-treatment group was given saline for the first 4 days and on the morning of the 5th day, but received a challenge of the test compound in the afternoon of the fifth day.

[9] = tested on: beagle dogs; format: in vivo; conditions: anesthetized dog, i.v. bolus 10 nmol/kg
Protocol: Male beagle dogs were anesthetized with pentobarbital (35 mg/kg, i.v.) followed by constant i.v. infusion of pentobarbital (5 mg/kg/h). The animals were ventilated with room air by means of a mechanical respiration pump. Blood pressure was measured using a dual tip micromanometer catheter (Millar, Model SPC-770, 7F) inserted into the heart left ventricle via the carotid artery. Compounds were injected into the right femoral vein via catheter. Hemodynamic variables were computed using XYZ Real Time Spreadsheet software on a signal processing workstation (Modular Instruments, Inc.). Sixty minutes were allowed following surgery to achieve a steady-state baseline for the measured variables. Test compounds were administered by i.v. bolus (10 nmol/kg) and compared for their relative ability to elicit changes in blood pressure and heart rate over a five minute data collection period.

[10] = molecular target: neuromuscular junction nicotinic acetylcholine receptor (Tetronarce californica, UniProt P02710+P02714+P02718); assay: biochemical; format: binding, Torpedo Californica; conditions: read-out: Ki (nM) α-bungarotoxin
[11] = mecamylamine 10 μM, MLA 10 nM, α-BTX 1 nM

T2 sequence (P09483 31-630): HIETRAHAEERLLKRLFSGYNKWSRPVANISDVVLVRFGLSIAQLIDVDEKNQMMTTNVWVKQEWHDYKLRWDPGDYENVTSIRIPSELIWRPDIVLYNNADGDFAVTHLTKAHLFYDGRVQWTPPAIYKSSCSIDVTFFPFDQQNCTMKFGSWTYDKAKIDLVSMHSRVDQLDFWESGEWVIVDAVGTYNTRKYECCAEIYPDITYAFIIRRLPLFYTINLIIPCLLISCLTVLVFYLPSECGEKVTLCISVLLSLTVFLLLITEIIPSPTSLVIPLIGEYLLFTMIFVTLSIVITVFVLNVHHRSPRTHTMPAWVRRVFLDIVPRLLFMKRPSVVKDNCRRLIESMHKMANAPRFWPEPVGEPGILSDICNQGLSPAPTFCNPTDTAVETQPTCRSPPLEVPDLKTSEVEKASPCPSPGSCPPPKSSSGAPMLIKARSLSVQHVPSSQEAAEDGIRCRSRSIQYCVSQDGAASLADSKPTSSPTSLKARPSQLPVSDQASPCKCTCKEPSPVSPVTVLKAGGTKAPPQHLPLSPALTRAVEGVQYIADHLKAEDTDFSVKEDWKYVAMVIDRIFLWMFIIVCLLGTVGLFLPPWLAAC
T2 sequence (P12390 25-500): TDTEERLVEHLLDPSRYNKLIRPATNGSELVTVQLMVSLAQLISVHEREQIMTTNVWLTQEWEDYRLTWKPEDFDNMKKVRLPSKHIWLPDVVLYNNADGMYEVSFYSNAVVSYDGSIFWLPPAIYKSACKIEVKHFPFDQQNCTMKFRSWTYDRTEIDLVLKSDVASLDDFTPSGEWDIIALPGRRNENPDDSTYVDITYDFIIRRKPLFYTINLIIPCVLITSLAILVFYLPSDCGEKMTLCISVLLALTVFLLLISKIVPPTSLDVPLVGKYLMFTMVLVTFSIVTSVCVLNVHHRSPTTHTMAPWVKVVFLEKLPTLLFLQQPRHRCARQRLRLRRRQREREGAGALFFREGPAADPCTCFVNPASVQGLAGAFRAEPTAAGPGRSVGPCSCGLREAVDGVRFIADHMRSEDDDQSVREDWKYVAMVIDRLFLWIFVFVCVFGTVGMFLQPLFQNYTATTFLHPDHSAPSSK
T1 sequence (P32297 32-505): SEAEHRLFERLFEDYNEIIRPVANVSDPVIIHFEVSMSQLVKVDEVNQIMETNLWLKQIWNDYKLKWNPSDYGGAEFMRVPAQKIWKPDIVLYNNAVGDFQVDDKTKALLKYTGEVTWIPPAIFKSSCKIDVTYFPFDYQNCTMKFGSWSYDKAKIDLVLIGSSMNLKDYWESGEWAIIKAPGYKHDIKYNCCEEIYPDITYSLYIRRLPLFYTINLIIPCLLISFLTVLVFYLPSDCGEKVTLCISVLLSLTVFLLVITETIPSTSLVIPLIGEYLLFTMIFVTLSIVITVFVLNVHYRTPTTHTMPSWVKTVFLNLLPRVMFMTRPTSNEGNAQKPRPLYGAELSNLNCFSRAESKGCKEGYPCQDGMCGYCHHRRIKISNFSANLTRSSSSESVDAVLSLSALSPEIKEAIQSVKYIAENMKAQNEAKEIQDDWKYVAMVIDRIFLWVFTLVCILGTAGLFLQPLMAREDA
T1 sequence (P30926 22-498): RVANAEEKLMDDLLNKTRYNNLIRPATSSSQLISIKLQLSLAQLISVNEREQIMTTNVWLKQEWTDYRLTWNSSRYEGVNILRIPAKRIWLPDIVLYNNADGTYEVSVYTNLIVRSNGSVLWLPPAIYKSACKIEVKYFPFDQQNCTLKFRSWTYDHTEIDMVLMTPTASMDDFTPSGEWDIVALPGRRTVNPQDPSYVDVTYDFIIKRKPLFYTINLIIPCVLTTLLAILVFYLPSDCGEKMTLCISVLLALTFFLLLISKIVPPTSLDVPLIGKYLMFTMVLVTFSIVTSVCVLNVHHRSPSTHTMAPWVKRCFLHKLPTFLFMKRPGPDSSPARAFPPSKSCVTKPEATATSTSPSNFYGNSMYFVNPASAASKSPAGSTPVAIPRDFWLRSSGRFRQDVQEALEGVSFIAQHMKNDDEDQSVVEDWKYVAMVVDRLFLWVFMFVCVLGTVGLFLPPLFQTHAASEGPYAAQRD
Chain of neuromuscular junction nicotinic acetylcholine receptor (P02714 18-506): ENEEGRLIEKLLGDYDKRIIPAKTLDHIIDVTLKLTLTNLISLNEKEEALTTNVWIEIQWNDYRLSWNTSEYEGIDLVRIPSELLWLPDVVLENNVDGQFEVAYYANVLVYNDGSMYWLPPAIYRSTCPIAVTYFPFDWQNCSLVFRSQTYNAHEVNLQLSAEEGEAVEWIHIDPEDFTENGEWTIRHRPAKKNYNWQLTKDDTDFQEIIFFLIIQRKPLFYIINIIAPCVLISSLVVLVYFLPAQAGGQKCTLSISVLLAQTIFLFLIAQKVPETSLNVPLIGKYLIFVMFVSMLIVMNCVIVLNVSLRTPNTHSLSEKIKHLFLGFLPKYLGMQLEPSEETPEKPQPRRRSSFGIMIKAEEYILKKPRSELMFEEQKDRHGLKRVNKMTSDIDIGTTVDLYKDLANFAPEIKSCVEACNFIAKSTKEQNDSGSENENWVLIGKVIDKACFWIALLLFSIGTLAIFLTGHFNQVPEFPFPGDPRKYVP
Chain of neuromuscular junction nicotinic acetylcholine receptor (P02710 25-461): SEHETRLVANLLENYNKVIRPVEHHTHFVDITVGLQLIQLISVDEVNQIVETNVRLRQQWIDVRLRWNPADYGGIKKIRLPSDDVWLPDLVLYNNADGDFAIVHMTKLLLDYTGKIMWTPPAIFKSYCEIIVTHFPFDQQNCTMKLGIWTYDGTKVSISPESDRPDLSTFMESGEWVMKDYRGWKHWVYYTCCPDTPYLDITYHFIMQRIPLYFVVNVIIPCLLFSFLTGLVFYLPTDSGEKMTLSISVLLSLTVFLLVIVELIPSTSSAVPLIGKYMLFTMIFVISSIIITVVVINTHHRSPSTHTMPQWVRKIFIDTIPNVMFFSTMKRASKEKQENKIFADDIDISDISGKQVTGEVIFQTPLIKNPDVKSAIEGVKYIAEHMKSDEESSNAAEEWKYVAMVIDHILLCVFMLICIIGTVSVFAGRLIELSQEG
Chain of neuromuscular junction nicotinic acetylcholine receptor (P02712 25-493, further chain): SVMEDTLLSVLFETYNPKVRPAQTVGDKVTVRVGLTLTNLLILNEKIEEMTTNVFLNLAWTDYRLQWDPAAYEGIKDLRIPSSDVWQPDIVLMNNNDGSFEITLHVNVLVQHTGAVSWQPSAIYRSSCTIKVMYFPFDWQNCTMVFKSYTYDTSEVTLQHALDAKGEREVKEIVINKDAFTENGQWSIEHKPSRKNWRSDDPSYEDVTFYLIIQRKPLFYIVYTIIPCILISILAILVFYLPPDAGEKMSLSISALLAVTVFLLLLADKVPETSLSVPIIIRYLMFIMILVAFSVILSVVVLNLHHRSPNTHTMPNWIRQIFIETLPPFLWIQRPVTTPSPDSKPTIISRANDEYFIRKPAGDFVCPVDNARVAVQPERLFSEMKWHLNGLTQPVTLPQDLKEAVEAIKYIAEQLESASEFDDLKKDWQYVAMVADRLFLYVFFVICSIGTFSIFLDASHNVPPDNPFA
Chain of neuromuscular junction nicotinic acetylcholine receptor (P02718 22-522): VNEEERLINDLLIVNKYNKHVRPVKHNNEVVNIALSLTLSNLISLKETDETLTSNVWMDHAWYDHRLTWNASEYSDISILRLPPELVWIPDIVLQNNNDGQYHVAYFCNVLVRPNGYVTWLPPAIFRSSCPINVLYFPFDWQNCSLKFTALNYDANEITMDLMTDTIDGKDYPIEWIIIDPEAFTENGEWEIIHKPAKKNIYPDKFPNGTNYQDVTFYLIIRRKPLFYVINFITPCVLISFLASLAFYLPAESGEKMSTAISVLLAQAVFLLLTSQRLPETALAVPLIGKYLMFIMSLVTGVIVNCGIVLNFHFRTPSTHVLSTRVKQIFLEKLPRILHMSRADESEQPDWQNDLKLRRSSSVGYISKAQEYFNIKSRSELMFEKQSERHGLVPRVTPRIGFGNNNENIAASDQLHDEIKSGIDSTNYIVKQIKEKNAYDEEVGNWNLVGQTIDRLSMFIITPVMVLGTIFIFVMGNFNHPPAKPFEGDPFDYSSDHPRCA

Molecule: spantide II
- block of SP-induced toxicity [1]: blocked

Molecule: C[C@H](NC(=O)OC(C)(C)C)C(=O)N1CC[C@@H]1COc1ccc(F)nc1 [Example 54]
- analgesic dose [2]: >6.2 µmol/kg

Molecule: Clc1cc(OC[C@H]2CCN2)cnc1Cl [Example 16, 5-((2R)-azetidinylmethoxy)-2,3-dichloropyridine hydrochloride]
- IMR-32 % maximal nicotine response at 1 μM Cmpd conc'n [3]: 85%
- Ki [4]: 0.06 nM
- MED Chung model (μmol/kg, i.p.) [5]: 0.19 µmol/kg
- minimal effective dose [6]: 6.2 µmol/kg

Molecule: CC1(C)CC(=O)C=C(N2CC[C@@H]2COc2ccc(F)nc2)C1 [Example 75]
- analgesic dose [2]: 6.2 µmol/kg

Molecule: O=C1c2ccccc2C(=O)N1CN1CC[C@@H]1COc1ccc(F)nc1 [Example 72]
- analgesic dose [2]: 0.62 µmol/kg

Molecule: CNC1(C)C2CCC(C2)C1(C)C (centres unmarked) [mecamylamine, reference compound]
- prevention of the paw edema effect of Example 4 by nicotinic antagonist [7]: prevented
- prevention of the paw edema effect of Example 4 by nicotinic antagonist ([7]; listed as mecaamylamine): prevents this effect
- block of the neuroprotective effect by nicotinic antagonists [1, 11]: blocked

Molecule: Clc1cc(OC[C@@H]2CCN2)cnc1Cl [Example 15, 5-((2S)-azetidinylmethoxy)-2,3-dichloropyridine hydrochloride]
- IMR-32 % maximal nicotine response at 1 μM Cmpd conc'n [3]: 117%
- Ki [4]: 0.02 nM
- MED Chung model (μmol/kg, i.p.) [5]: NS
- minimal effective dose [6]: 1.9 µmol/kg

Molecule: CN1CC[C@]23c4c5ccc(O)c4O[C@H]2[C@@H](O)C=C[C@H]3[C@H]1C5 [morphine, reference compound]
- anti-allodynic effect following repeated dosing [8]: significantly reduced

Molecule: O=C(Oc1ccccc1)N1CC[C@@H]1COc1ccc(F)nc1 [Example 79]
- analgesic dose [2]: 0.62 µmol/kg

Molecule: Clc1ncc(OC[C@@H]2CCN2)cc1Br [Example 17, 5-((2S)-azetidinylmethoxy)-3-bromo-2-chloropyridine hydrochloride]
- IMR-32 % maximal nicotine response at 1 μM Cmpd conc'n [3]: 120%
- Ki [4]: 0.02 nM
- MED Chung model (μmol/kg, i.p.) [5]: 0.19 µmol/kg
- minimal effective dose [6]: 1.9 µmol/kg

Molecule: Cc1cncc(OC[C@H]2CCN2)c1 [Example 14, 5-Methyl-3-((2R)-azetidinylmethyloxy)pyridine hydrochloride]
- IMR-32 % maximal nicotine response at 1 μM Cmpd conc'n [3]: 15%
- Ki [4]: 0.18 nM
- minimal effective dose [6]: 62 µmol/kg

Molecule: O=C1CCC(=O)N1CN1CC[C@@H]1COc1ccc(F)nc1 [Example 71]
- analgesic dose [2]: 0.62 µmol/kg

Molecule: O=C(N1CCCC1)N1CC[C@@H]1COc1ccc(F)nc1 [Example 92]
- analgesic dose [2]: >6.2 µmol/kg

Molecule: CCN1C[C@]2(COC(=O)c3ccccc3N3C(=O)C[C@H](C)C3=O)CC[C@H](OC)[C@@]34[C@@H]5C[C@H]6[C@H](OC)[C@@H]5[C@](O)(C[C@@H]6OC)[C@@](O)([C@@H](OC)[C@H]23)[C@@H]14 [methyllycaconitine]
- block of the neuroprotective effect by nicotinic antagonists [1, 11]: blocked

Molecule: O=C(Oc1ccc([N+](=O)[O-])cc1)N1CC[C@@H]1COc1ccc(F)nc1 [Example 80]
- analgesic dose [2]: 0.62 µmol/kg

Molecule: Cl.Fc1ncccc1OC[C@@H]1CCN1 [Example 122, 2-Fluoro-3-(2(S)-azetidinylmethoxy)pyridine hydrochloride]
- MED Chung model (μmol/kg, i.p.) [5]: 1.9 µmol/kg

Molecule: α-bungarotoxin
- block of the neuroprotective effect by nicotinic antagonists [1]: blocked

Molecule: O=C(CCSSCCC(=O)N1CC[C@@H]1COc1ccc(F)nc1)N1CC[C@@H]1COc1ccc(F)nc1 [Example 95]
- analgesic dose [2]: >6.2 µmol/kg

Molecule: COc1ccc(OC(=O)N2CC[C@@H]2COc2ccc(F)nc2)cc1 [Example 81]
- analgesic dose [2]: 0.62 µmol/kg

Molecule: Clc1ccc(OC[C@H]2CCN2)cn1 [Example 1, 5-((2R)-Azetidinylmethoxy)-2-chloropyridine]
- Increase in Diastolic Blood Pressure (mm Hg) [9]: 23.2 ± 4.6 mm Hg
- Increase in Heart Rate (beats/min) [9]: 7.8 ± 2.9 beats/min
- blood pressure increase as fraction of that seen with Example 19 [9]: ⅓
- heart rate increase as fraction of that seen with Example 19 [9]: ⅓

Molecule: C[C@]12N[C@H](Cc3ccccc31)c1ccccc12 [MK-801]
- block of Glu-induced toxicity ([1]; Glu 300 μM, MK-801 1 μM): blocked
- block of SP-induced toxicity [1]: cannot prevent

Molecule: Fc1cncc(OC[C@@H]2CCN2)c1 [Example 10, 5-((2S)-Azetidinylmethyloxy)-3-fluoropyridine dihydrochloride]
- IMR-32 % maximal nicotine response at 1 μM Cmpd conc'n [3]: 28%
- Ki [4]: 0.09 nM
- MED Chung model (μmol/kg, i.p.) [5]: 0.62 µmol/kg
- minimal effective dose [6]: 6.2 µmol/kg

Molecule: Cl.Cl.Clc1ccc(OC[C@@H]2CCN2)cn1 [Example 19, 5-((2S)-Azetidinylmethyloxy)-2-chloropyridine dihydrochloride]
- Increase in Diastolic Blood Pressure (mm Hg) [9]: 67.3 ± 3.2 mm Hg
- Increase in Heart Rate (beats/min) [9]: 26.0 ± 7.8 beats/min
- IMR-32 % maximal nicotine response at 1 μM Cmpd conc'n [3]: 173%
- Ki [4]: 0.04 nM
- less potent as a neuroprotectant in spinal cord ([1]; relative to compound of Example 4): 10 fold
- MED Chung model (μmol/kg, i.p.) [5]: 0.3 µmol/kg
- MED Hot plate model (μmol/kg, i.p.) [6]: 0.62 µmol/kg
- Ki [10]: 1300 nM
